# Like-named read-outs stand apart in the source and are kept apart here.
# What was measured:
# [1] = Pharmacokinetic study after single intravenous dose; assay type: in vivo, mice (CD-1); details: female, CD-1, mouse, mice, i.v. 0.75 mg/kg
# Procedure: 39 mice (CD-1, 6-weeks old, female) were used in the study. […] The drugs were dissolved in PBS and administered via tail-vein injection to achieve a dose of 0.75 mg/kg of body weight. At specific times post injection (10 min, 30 min, 1 h, 2 h, 4 h and 24 h) blood and brain samples were collected. Blood samples were transferred into tubes containing 5% EDTA, stored on ice, and centrifuged (4° C., 1000 rpm, 15 min). Plasma (upper phase) was transferred to a new tube and stored at −80° C. for further analysis. Brain tissue samples were collected after intracardial perfusion of the mouse. Brain tissue samples were stored at −80° C. for further analysis. Drug quantification in plasma: Briefly, to a 1.5 mL Eppendorf tube containing 50 μl of plasma, 200 μl of ice-cold acetonitrile containing 1,000 ng/ml Progesterone (used as internal standard) was added in order to precipitate the proteins. The sample was vortexed, mixed and centrifuged at 4000×g for 10 min at 4° C. to remove precipitates. 140 μl supernatant was collected and transferred to a 500 μl 96-well polypropylene plate and covered using silicone plate mat. 40 μl of sample was injected in into LC-MS. Using the same sample preparation procedure 11 standard solutions ranging from 50 ng/mL to 100 μg/mL were prepared, analyzed by LC-MS and used as a calibration curve to correlate peak area of the samples to concentration. Drug quantification in brain: the mouse brain was weighted and 1 mL of water per 400 mg of tissue was added. The sample was homogenized using an electric tissue homogenizer. To a 1.5 mL Eppendorf tube containing 50 μl of homogenized sample, 200 μl of ice-cold acetonitrile containing 1000 ng/ml Demeclocycline (used as internal standard) was added in order to precipitate the proteins. The sample was vortexed, mixed and centrifuged at 4000×g for 10 min at 4° C. to remove precipitates. 140 μl supernatant was collected and transferred to a 500 μl 96-well polypropylene plate and covered using silicone plate mat. 40 μl of each sample was injected into LC-MS. Using the same sample preparation procedure 11 standard solutions ranging from 50 ng/mL to 100 μg/mL were prepared, analyzed by LC-MS and used as a calibration curve to correlate peak area of the samples to concentration.
# The Hill equation used to fit the data from the voltage-clamp and the optic nerve experiments was as follows: y=y0+(yf−y0)*x^n/(k^n+x^n); where n refers to the Hill coefficient (typically 1±0.1) and k refers to EC50 or IC50. y0 and yf refers to the origin and final ordinate values and were fixed at 1±0.1 or 0±0.1 depending on the experiment. EC50=10^<log EC50>; where <log EC50>=average of log EC50 values from all experiments with the same drug. 95% C.I.=[Upper Limit . . . Lower Limit]; where U.L.=10^(log EC50+s.d.) and L.L.=10^(log EC50−s.d.). The half-life (t1/2) in the stability and pharmacokinetic experiments was calculated by fitting the data to the equation Ct=C0*exp(−k*t) where C0=initial concentration, Ct=concentration at time t, and k=ln 2/t1/2. Student t-test was used to compare results and P<0.05 was considered significant.
# Shaker K^+ channel = target: T1, Shaker K^+ channel (Drosophila melanogaster, UniProt P08510); test: Inhibition of K+ currents, cut-open oocyte voltage clamp; assay type: cell-based, Xenopus oocytes
# T1 construct: injecting approximately 50 ng of WT Shaker cRNA (kit Ambion) into the oocytes; expressed in transfected cells; host or cells: Xenopus laevis oocytes (cRNA injection)
# T1 sequence (P08510 whole entry): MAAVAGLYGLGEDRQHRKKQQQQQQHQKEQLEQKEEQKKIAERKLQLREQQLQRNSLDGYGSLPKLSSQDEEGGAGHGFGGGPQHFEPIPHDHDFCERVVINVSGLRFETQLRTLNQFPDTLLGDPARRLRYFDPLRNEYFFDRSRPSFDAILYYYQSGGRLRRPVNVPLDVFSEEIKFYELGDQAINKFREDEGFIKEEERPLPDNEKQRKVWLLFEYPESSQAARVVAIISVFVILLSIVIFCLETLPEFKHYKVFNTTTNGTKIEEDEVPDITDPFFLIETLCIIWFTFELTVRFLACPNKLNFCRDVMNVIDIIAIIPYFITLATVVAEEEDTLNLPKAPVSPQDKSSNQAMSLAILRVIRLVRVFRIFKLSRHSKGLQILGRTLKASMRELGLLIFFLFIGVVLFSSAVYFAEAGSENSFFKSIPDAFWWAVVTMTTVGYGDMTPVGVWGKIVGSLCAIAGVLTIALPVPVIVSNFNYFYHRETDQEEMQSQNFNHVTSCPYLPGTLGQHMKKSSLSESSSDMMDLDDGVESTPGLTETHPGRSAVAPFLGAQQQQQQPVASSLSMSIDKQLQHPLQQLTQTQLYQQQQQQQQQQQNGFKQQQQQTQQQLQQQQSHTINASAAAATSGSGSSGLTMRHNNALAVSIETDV
# Procedure: Using the cut-open oocyte voltage clamp studies to screen compounds to determine their potency towards Kv1 cannels was previously described in Starace and Bezanilla et al. (2004).
# For this experiment, Shaker K^+ channel from D. […] was chosen as the archetypical voltage gated K^+ channel that gives name to the family.
# Electrophysiology studies are conducted according to the protocol by Stefani and Bezanilla (1998). Briefly, K^+ channel Shaker cRNA is injected into Xenopus oocytes 24 h after their surgical extraction from adult frogs. 1-5 days after injection channel currents are recorded using the cut-open voltage-clamp.
# K^+ channel expression in Xenopus oocytes membranes was achieved by injecting approximately 50 ng of WT Shaker cRNA (kit Ambion) into the oocytes 24 h after surgical extraction from adult frogs and collagenase treatment. Injected oocytes were maintained in a standard oocytes solution (100 mM NaCl, 5 mM KCl, 2 mM CaCl2, and 10 mM Hepes at pH 7.5) at 16.5° C. and recordings were performed 1-3 days after injection.
# K^+ currents were recorded from oocytes expressing Shaker K^+ channels using the cut-open voltage clamp technique as described by Stefani and Bezanilla. The internal solution was 120 mM KOH, 20 mM HEPES-methyl sulfonate (MES) pH 7.4, 2 mM EGTA. The external solution was 12 mM KOH, 105 mM N-methyl-D-glucamine-MES pH 7.4, 20 mM HEPES, 2 mM CaOH. […] After application, cells were voltage-clamped at least 5 min at 0 mV, then voltage-clamped at −80 mV for 1-2 min. K^+ currents were generated by applying series of 50 ms pulses from −70 mV to +40 mV in increments of 10 mV. […] Analysis of the traces was done using an in-house software. The half-maximal inhibitory concentration (IC50) for each drug was calculated by plotting the relative K^+ current vs. concentration and fitted to the Hill equation using the software Origin.
# EC50=10^<log EC50>; where <log EC50>=average of log EC50 values from all experiments with the same drug. 95% C.I.=[Upper Limit . . . Lower Limit]; where U.L.=10^(log EC50+s.d.) and L.L.=10^(log EC50−s.d.). The half-life (t1/2) in the stability and pharmacokinetic experiments was calculated by fitting the data to the equation Ct=C0*exp(−k*t) where C0=initial concentration, Ct=concentration at time t, and k=ln 2/t1/2. Student t-test was used to compare results and P<0.05 was considered significant.
smiles,measurement,setting,value
"Nc1ccncc1F [3-F-4-AP, 3-fluoro-4-aminopyridine]",Kp,"[1]; brain and plasma, read-out: Cbrain/Cplasma (maximum in the brain over maximum in plasma)",0.214 ± 0.17
same,half-life,"[1]; brain, read-out: half-life in brain (converted)",85.8 min
same,half-life,"[1]; plasma, read-out: half-life in plasma (converted)",20.4 min
same,affinity for K^+ channels compared with 4-AP,Shaker K^+ channel; cut-open oocyte voltage clamp (Example 2),very similar affinity to 4-AP
same,IC50,"Shaker K^+ channel; relative K+ current at +20 mV, Xenopus oocytes, Hill fit, read-out: half-maximal inhibitory concentration (IC50)",250 µM
